SMILES strings stand for the structures.

In the case of `O=C(O)CCSC(c1cccc(-c2nnc(Nc3ccc(Cl)c(Cl)c3)s2)c1)c1cccc(C(F)(F)F)c1` (stereo not shown), the melting point (usually the temperature, or range, at which the solid turns liquid) fell in the range of 140 to 141 °C. Regarding `O=[N+]([O-])c1cccc(-c2nnc(Nc3cccc(Br)c3)s2)c1` [Example 1, N2-(3-bromophenyl)-5-(3-nitrophenyl)-1,3,4-thiadiazol-2-amine], the melting point was in the range of 273 to 275 °C.

`O=C(O)CCc1cccc(Oc2cccc(-c3nnc(Nc4ccc(Cl)c(Cl)c4)s3)c2)c1` [Example 9, 3-[3-(3-{5-[(3,4-Dichlorophenyl)amino]-1,3,4-thiadiazol-2-yl}phenoxy)phenyl]propanoic acid] returned a melting point of 194 to 196 °C. With `O=[N+]([O-])c1ccccc1OCc1nnc(Nc2cccc(Br)c2)s1` [Example 36, (3-Bromophenyl){5-[(2-nitrophenoxy)methyl](1,3,4-thiadiazol-2-yl)}amine] the figure was 184 to 185 °C. Turning to `COc1ccc(CSc2cccc(Nc3nnc(-c4cccc([N+](=O)[O-])c4)s3)c2)cc1` [Example 41, {3-[(4-Methoxyphenyl)methylthio]phenyl}[5-(3-nitrophenyl)(1,3,4-thiadiazol-2-yl)]amine], the melting point lay within 208 to 209 °C. In turn, `COc1cccc(-c2nnc(Nc3ccc(F)c(Cl)c3)s2)c1` [Example 68, (3-chloro-4-fluorophenyl)[5-(3-methoxyphenyl)(1,3,4-thiadiazol-2-yl)]amine] came in with a melting point of 185 to 187 °C. As for `COc1cccc(-c2nnc(Nc3ccc(Br)c(Cl)c3)s2)c1` [Example 69, (4-bromo-3-chlorophenyl)[5-(3-methoxyphenyl)(1,3,4-thiadiazol-2-yl)]amine], the melting point fell in the range of 215 to 217 °C. The same measure for `CCOc1cccc(-c2nnc(Nc3ccc(F)c(Cl)c3)s2)c1` [Example 70, (3-chloro-4-fluorophenyl)[5-(3-ethoxyphenyl)(1,3,4-thiadiazol-2-yl)]amine]: 170 to 172 °C; for `CCOc1cccc(-c2nnc(Nc3ccc(Br)c(C)c3)s2)c1` [Example 71, (4-bromo-3-methylphenyl)[5(3-ethoxyphenyl)(1,3,4-thiadiazol-2-yl)]amine]: 201 to 202 °C. With `CCOc1cccc(-c2nnc(Nc3cccc(Br)c3)s2)c1` [Example 74, (3-bromophenyl)[5-(3-ethoxyphenyl)(1,3,4-thiadiazol-2-yl)]amine] the figure was 195 to 197 °C; with `O=[N+]([O-])c1cccc(-c2nnc(Nc3cccc(Cl)c3Cl)s2)c1` [Example 76, (2,3-dichlorophenyl)[5-(3-nitrophenyl)(1,3,4-thiadiazol-2-yl)]amine], 240 to 242 °C. On to `Clc1cc(Nc2nnc(-c3ccc4nonc4c3)s2)ccc1Br` [Example 122, (5-benzo[3,4-c]1,2,5-oxadiazol-5-yl(1,3,4-thiadiazol-2-yl))(4-bromo-3-chlorophenyl)amine], for which the melting point was 326 to 327 °C. `CCOC(=O)c1ccc(Nc2nnc(-c3ccc(Oc4ccccc4)cc3)s2)cc1` [Example 123, ethyl 4-{[5-(4-phenoxyphenyl)-1,3,4-thiadiazol-2-yl]amino}benzoate] registered a melting point of 206 to 207 °C.

`O=[N+]([O-])c1cccc(Oc2cccc(-c3nnc(Nc4ccc(Cl)c(Cl)c4)s3)c2)c1` [Example 126, (3,4-dichlorophenyl){5-[3-(3-nitrophenoxy)phenyl](1,3,4-thiadiazol-2-yl)}amine]: the melting point lay within 210.5 to 211.5 °C. In the case of `O=C(O)Cc1cccc(Oc2cccc(-c3nnc(Nc4ccc(Cl)c(Cl)c4)s3)c2)c1` [Example 127, 2-[3-(3-{5-[(3,4-dichlorophenyl)amino]-1,3,4-thiadiazol-2-yl}phenoxy)phenyl]acetic acid], the melting point is 183 to 184 °C.

For the compound `Oc1ccc(Oc2cccc(-c3nnc(Nc4ccc(Cl)c(Cl)c4)s3)c2)cc1` [Example 128, 4-(3-{-[(3,4-dichlorophenyl)amino]-1,3,4-thiadiazol-2-yl}phenoxy)phenol], the melting point was in the range of 224 to 225.5 °C.

(Values after patent US20050065118A1, “Organosulfur inhibitors of tyrosine phosphatases” (priority 2001, published 2005).)
